The text below walks through data of ChEMBL document CHEMBL3045287, “Synthesis and antimicrobial activity of morpholinyl/piperazinylbenzothiazines” (2012).

SMILES strings stand for the structures.

The subject of assay [1] is Escherichia coli. Briefly: Antimicrobial activity against Escherichia coli at 30 ug/ml after 24 hr by well diffusion assay. Conditions: read-out: IZ. It is filed as functional. On the technique in general: A growth-free zone around the sample is the usual read-out of agar diffusion tests.
Assay [2] has as its system Bacillus cereus. The assay can be described thus: Antimicrobial activity against Bacillus cereus at 30 ug/ml after 24 hr by well diffusion assay. It is filed as functional. Conditions: read-out: IZ.

Consider `CC1=C(C(=O)N2CCN(CCO)CC2)Sc2ccccc2N1`, for which the zone of inhibition at 30 µg/mL was 9 mm in assay [1] and 7 mm in assay [2].

Turning to `CC1=C(C(=O)N2CCN(CCO)CC2)Sc2cc(Cl)ccc2N1`, the results for the zone of inhibition at 30 µg/mL in assay [1] and in assay [2] were 11 mm and 9 mm, respectively.

With `Cc1ccc2c(c1)SC(C(=O)N1CCOCC1)=C(C(C)C)N2`, the zone of inhibition at 30 µg/mL in assay [1] was 7 mm; in assay [2], 10 mm.

`CC1=C(C(=O)N2CCOCC2)Sc2cc(C)ccc2N1`: the zone of inhibition at 30 µg/mL in assay [1] came to 12 mm; in assay [2] it was 9 mm.

Regarding `CC1=C(C(=O)N2CCOCC2)Sc2ccccc2N1`, the zone of inhibition at 30 µg/mL in assay [1] was determined as 9 mm; in assay [2] it was 12 mm.

As to `CC1=C(C(=O)N2CCOCC2)Sc2cc(Cl)ccc2N1`, the zone of inhibition at 30 µg/mL in assay [1] and in assay [2] was 8 mm each time.

For `O=C(N[C@H](CO)[C@H](O)c1ccc([N+](=O)[O-])cc1)C(Cl)Cl` [CHLORAMPHENICOL], the zone of inhibition at 30 µg/mL in assay [1] was determined as 9 mm; in assay [2] it was 10 mm.
